Values quoted from earlier work, collected in patent publication US20230045688A1 (priority 2020, published 2023).

Tested on: SARS-CoV
Conditions: disruption of oligosaccharide formation; Vincent et al. 2005; Savarino et al. 2006

CCN(CC)CCCC(C)Nc1ccnc2cc(Cl)ccc12 (stereo not shown) [chloroquine]
SARS-CoV infectivity: significantly decreases SARS-CoV infectivity
